From paper PMC3919815, “Anti-Tumor Effects of Novel 5-O-Acyl Plumbagins Based on the Inhibition of Mammalian DNA Replicative Polymerase Activity” (PLoS ONE, 2014)
One block for each compound: values may come before it.

Assays:
HT-29 solid tumors = assay: In vivo anti-tumor assay; parameters: species or system nude mice; conditions: at 40 days; 5 mg/kg subcutaneously in PBS, versus PBS control; n = 6
From the text: Male BALB/c nu/nu mice at 5 week of age (18 g) were purchased from Japan SLC, Inc. (Shizuoka, Japan). Mice receiving standard laboratory chow and water ad libitum were acclimatized for 1 week before inoculation with cancer cells. For in vivo experiments, human colon HT-29 cells (1×10^7 cells/mouse) were subcutaneously injected into nude mice. Mice bearing solid tumors that had grown to approximately 100 mm^3 in volume (tumor volume = length×width×height) at 12 days after implantation were used for the assessment of anti-tumor effects. They were divided randomly into five groups (n = 6/group). One of the five groups was a control group injected with 0.1 mL of phosphate buffered saline (PBS) alone, and other groups were injected with vitamin K3 (3), juglone (4), C18:1-acyl juglone (5f), and C18:1-acyl plumbagin (2f) dissolved in PBS at a dose of 5 mg/kg. The above administrations all took place between days 12–39 subsequent to implantation. All mice were injected subcutaneously 14 times at […] with the compound and PBS alone (control). Tumor growth was measured at 1-day intervals for 40 days after implantation. At the end of the in vivo anti-tumor assay, some mice treated with the test compounds and PBS were independently examined to observe major organs such as lung, heart, spleen, stomach, liver, pancreas, kidney, intestine, and brain.

[1] = Stability under basic conditions (Triton B, UV-vis); type: physicochemical; conditions: 1 equivalent Triton B in 1,4-dioxane and MeOH, 1.1×10^−3 M, 25°C
Experimental: A 2.2×10^−2 M solution of Triton B in MeOH was added to a 2.2×10^−2 M solution of each sample in 1,4-dioxane. Then, the mixture was diluted with 1,4-dioxane to a concentration of 1.1×10^−3 M. Then, the stability of each compound was monitored by UV-vis spectroscopy. UV-vis spectra were measured at 25°C on a UV-vis spectrophotometer (JASCO V-650, Tokyo, Japan). For comparison, UV-vis spectra of 1.1×10^−3 M solution of C18:1-acyl plumbagin (2f), and C18:1-acyl juglone (5f) in 1,4-dioxane and MeOH (19/1, v/v) were measured.

Human pol λ = biological target: T1, Human pol λ (Homo sapiens, UniProt Q9UGP5); assay: DNA polymerase activity inhibition; type: biochemical; conditions: 10 µM compound; Fig. 4
T1 construct: His tag; made in house
T1 sequence (Q9UGP5 1-575): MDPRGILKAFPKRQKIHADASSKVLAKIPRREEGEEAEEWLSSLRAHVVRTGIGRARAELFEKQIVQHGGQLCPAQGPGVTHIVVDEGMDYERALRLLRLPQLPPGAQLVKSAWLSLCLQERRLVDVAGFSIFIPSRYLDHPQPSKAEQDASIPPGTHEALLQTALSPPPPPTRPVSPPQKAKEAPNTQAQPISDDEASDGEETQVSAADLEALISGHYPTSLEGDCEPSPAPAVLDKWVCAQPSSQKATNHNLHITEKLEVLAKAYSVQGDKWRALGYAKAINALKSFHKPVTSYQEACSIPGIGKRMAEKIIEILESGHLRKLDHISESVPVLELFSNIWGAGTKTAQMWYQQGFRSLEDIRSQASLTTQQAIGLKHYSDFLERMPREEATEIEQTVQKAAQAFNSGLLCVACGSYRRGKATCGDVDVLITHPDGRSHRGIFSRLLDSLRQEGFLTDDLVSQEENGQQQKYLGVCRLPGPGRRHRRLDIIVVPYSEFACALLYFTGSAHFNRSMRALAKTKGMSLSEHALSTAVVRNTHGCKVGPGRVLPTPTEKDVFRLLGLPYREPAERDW
From the text: (§1) Pol α was purified from calf thymus by immunoaffinity column chromatography as described by Tamai et al.. Recombinant rat pol β was purified from Escherichia coli JMpβ5 as described by Date et al.. The human pol γ catalytic gene was cloned into pFastBac. Histidine-tagged enzyme was expressed using the BACTO-BAC HT Baculovirus Expression System according to the manufacturer's instructions (Life Technologies, Frederick, MD, USA) and purified using ProBound resin (Invitrogen Japan, Tokyo Japan). Human pols δ and ε were purified by nuclear fractionation of human peripheral blood cancer cells (Molt-4) using the second subunit of pol δ and ε-conjugated affinity column chromatography, respectively. A truncated form of human pol η (residues 1–511) tagged with His6 at its C-terminal was expressed in E. coli cells and purified as described by Kusumoto et al.. A recombinant mouse pol ι tagged with His6 at its C-terminal was expressed and purified by Ni–NTA column chromatography. A truncated form of pol κ (residues 1–560) with 6× His-tags attached at the C-terminus was overexpressed in E. coli and purified as described by Ohashi et al.. Recombinant human His-pol λ was overexpressed and purified according to a method described by Shimazaki et al.. Recombinant human His-pol μ was overexpressed in E. coli BL21 and purified using Glutathione Sepharose 4B (GE Healthcare Bio-Science Corp., Piscataway, NJ, USA) column chromatography according to the method for pol λ preparation by Shimazaki et al.. Pol α from a higher plant, cauliflower, was purified from the inflorescence structure according to the methods outlined by Sakaguchi et al.. Recombinant rice (Oryza sativa L. cv. Nipponbare) pol λ tagged with His6 at the C-terminus was expressed in E. coli and purified as described by Uchiyama et al.. Calf TdT, Taq pol, T4 pol, T7 RNA polymerase, and T4 polynucleotide kinase were purchased from Takara Bio Inc. (Kyoto, Japan). The Klenow fragment of pol I from E. coli was purchased from Worthington Biochemical Corp. (Freehold, NJ, USA). Bovine pancreas deoxyribonuclease I was obtained from Stratagene Cloning Systems (La Jolla, CA, USA).
(§2) The reaction mixtures for calf pol α, rat pol β, plant pol α, and prokaryotic pols have been described previously, [35]; those for pol γ as well as pols δ and ε were previously described by Umeda et al. and Ogawa et al., respectively. Those for pols η, ι, and κ were the same as for pol α, and those for pols λ and μ were the same as for pol β. For the pol reactions, poly(dA)/oligo(dT)18 (A/T, 2/1) and dTTP were used as the DNA template-primer substrate and nucleotide (dNTP; 2′-deoxynucleoside-5′-triphosphate) substrate, respectively. For the TdT reactions, oligo(dT)18 (3′-OH) and dTTP were used as the DNA primer substrate and nucleotide substrate, respectively.
(§3) The chemically synthesized 5-O-acyl plumbagins (2a–j) were dissolved in distilled dimethyl sulfoxide (DMSO) to various concentrations and sonicated for 30 s. Subsequently, 4 µL aliquots were mixed with 16 µL of each enzyme (0.05 units) in 50 mM Tris-HCl at pH 7.5, containing 1 mM dithiothreitol, 50% glycerol (by vol), and 0.1 mM ethylenediaminetetraacetic acid and held at 0°C for 10 min. These inhibitor-enzyme mixtures in 8 µL volumes were next added to 16 µL of enzyme standard reaction mixture and incubated at 37°C for 60 min, except for Taq pol, which was incubated at 74°C for 60 min. Activity without inhibitor was considered 100%, and the relative activity was determined for each inhibitor concentration. One unit of pol activity was defined as the amount of each enzyme that catalyzed the incorporation of 1 nmol dTTP into synthetic DNA template primers in 60 min, at 37°C, and under standard reaction conditions, [35].

Human pol κ = biological target: T2, Human pol κ (Homo sapiens, UniProt Q9UBT6); assay: DNA polymerase activity inhibition; type: biochemical; conditions: 10 µM compound; Fig. 4
T2 construct: A truncated form of pol κ (residues 1–560) with 6× His-tags attached at the C-terminus; 6× His (C); made in house; host or cells: E. coli
T2 sequence (Q9UBT6 1-560): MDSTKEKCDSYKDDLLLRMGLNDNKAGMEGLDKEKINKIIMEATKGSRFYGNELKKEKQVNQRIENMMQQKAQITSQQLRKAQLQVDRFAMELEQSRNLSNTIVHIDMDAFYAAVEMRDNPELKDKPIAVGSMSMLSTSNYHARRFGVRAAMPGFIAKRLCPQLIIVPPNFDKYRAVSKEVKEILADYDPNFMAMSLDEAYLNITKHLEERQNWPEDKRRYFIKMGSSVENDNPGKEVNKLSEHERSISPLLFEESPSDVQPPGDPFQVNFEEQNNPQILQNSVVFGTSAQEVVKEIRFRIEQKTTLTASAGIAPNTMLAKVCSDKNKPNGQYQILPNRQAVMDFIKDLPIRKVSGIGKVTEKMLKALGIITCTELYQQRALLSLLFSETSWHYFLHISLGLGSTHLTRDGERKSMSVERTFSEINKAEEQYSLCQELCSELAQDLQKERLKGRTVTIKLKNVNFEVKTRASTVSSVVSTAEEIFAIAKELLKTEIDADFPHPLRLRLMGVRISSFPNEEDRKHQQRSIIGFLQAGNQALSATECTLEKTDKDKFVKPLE
From the text: as §1, §2, §3

HCT116 (colon cancer) = assay: Cancer cell viability, MTT assay; type: cell-based, human; conditions: 48 h, MTT; for suppression of cell proliferation: Fig. 5
Experimental: The following human cancer cell lines were obtained from the American Type Culture Collection (Manassas, VA, USA): lung (A549), prostate (DU145 and PC3), colon (HCT116 and HT-29), cervix (HeLa), hepatocellular liver (HepG2), breast (MCF-7), and pancreatic cancer (PANC-1). These cells were cultured in RPMI 1640 medium supplemented with 10% fetal bovine serum, penicillin (100 units/mL), streptomycin (100 µg/mL), and 1.6 mg/mL NaHCO3 at 37°C in a humid atmosphere of 5% CO2/95% air. For the cell viability assay, cells were seeded at 1×10^3 cells/well in a 96-well microplate with various concentrations of the test compounds, and incubated for 48 h. MTT (3-(4,5-dimethylthiazol-2-yl)-2,5-diphenyl tetrazolium bromide) solution was added to a final concentration 0.6 mg/mL in Milli-Q purified water for 2 h, after which time the medium was discarded and the cells lysed in DMSO. A540 was then measured in a microplate reader (Model 680, Bio-Rad Laboratories, Hercules, CA, USA).

Calf pol α = biological target: T3, Calf pol α (Bos taurus, UniProt A0AAA9TD94); assay: DNA polymerase activity inhibition; type: biochemical; conditions: 10 µM compound; Fig. 4
T3 construct: from tissue; host or cells: calf thymus
From the text: as §1, §2, §3

calf thymus dsDNA = assay: Thermal transition of dsDNA; type: binding; conditions: 15 µM compound (positive control); 6 µg/mL DNA, 0.1 M Na-phosphate buffer pH 7.0
Experimental: Thermal transition profiles of dsDNA to single-stranded DNA with or without test compound were obtained with a spectrophotometer (UV-2500; Shimadzu Corp., Kyoto, Japan) equipped with a thermoelectric cell holder according to previous methods. Calf thymus DNA (6 µg/mL) was dissolved in 0.1 M sodium phosphate buffer (pH 7.0) containing 1% DMSO. The solution temperature was equilibrated to 75°C for 10 min, and then increased by 1°C at 2-min intervals for each measurement point. Any change in the absorbance (260 nm) of the compound itself at each temperature point was automatically subtracted from that of DNA plus the compound in the spectrophotometer.

pol ε = tested on: pol ε; parameters: method as in PMID 10942777; conditions: cited from earlier work
pol α = tested on: pol α; parameters: method as in PMID 10942777; conditions: cited from earlier work
pol δ = tested on: pol δ; parameters: method as in PMID 10942777; conditions: cited from earlier work

T3 sequence (A0AAA9TD94 1-1441): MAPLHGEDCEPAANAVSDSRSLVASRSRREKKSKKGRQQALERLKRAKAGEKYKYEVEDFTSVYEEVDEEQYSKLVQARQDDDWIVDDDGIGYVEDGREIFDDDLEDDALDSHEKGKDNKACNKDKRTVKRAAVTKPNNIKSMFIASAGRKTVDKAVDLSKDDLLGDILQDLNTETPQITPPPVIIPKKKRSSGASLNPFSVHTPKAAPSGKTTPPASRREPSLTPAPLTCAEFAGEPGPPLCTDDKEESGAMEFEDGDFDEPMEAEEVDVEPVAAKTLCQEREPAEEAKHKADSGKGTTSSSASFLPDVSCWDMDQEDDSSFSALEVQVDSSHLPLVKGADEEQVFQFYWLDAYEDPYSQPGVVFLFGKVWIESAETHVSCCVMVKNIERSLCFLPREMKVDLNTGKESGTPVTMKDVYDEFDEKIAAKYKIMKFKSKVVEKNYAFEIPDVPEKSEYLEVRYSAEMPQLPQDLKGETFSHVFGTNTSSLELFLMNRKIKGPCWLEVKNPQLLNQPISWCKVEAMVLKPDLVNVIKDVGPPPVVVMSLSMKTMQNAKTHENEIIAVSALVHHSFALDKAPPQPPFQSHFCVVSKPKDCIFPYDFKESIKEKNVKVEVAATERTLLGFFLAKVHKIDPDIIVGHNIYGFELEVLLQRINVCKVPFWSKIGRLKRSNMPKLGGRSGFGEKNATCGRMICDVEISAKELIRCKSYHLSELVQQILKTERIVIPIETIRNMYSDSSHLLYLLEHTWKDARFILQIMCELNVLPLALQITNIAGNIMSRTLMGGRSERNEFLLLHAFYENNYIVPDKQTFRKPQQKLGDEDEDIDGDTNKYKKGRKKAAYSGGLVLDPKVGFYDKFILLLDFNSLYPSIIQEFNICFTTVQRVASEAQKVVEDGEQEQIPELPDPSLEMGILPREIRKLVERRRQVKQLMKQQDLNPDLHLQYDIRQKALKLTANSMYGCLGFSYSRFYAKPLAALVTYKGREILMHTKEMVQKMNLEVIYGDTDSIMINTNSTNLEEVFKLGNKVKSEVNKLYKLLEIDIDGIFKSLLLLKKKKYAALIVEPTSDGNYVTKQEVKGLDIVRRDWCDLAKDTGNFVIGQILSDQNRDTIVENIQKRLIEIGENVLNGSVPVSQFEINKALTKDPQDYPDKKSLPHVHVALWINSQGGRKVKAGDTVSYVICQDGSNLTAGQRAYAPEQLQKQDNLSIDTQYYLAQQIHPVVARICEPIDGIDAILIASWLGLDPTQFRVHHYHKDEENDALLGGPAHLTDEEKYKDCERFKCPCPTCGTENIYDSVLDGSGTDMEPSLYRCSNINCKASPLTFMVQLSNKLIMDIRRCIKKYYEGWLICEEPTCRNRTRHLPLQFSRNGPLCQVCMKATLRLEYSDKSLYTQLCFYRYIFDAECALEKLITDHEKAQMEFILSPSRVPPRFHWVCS

Structure (SMILES): CCCCCCCC/C=C\CCCCCCCC(=O)Oc1cccc2c1C(=O)C=CC2=O [5f, reference compound]
decreased rates of tumor volume (HT-29 solid tumors): 10.3%
stability under basic conditions (UV spectra) [1]: readily decomposes under basic conditions

inhibition of pol λ relative activity (in words) (Human pol λ): strongest inhibitor
inhibition of pol κ relative activity (in words) (Human pol κ): strongest inhibitor
Structure (SMILES): CC/C=C\C/C=C\C/C=C\C/C=C\C/C=C\C/C=C\CCC(=O)Oc1cccc2c1C(=O)C=C(C)C2=O [2j, 5-O-docosahexaenoyloxy-2-methyl-1,4-naphthoquinone]

Structure (SMILES): CCCCC/C=C\C/C=C\CCCCCCCC(=O)Oc1cccc2c1C(=O)C=C(C)C2=O [2g, 5-O-linoleoyloxy-2-methyl-1,4-naphthoquinone]
cell proliferation rate (HCT116 (colon cancer); 10 µM, control = 100%): < 60%

melting point: 67 to 70 °C
Structure (SMILES): CCCCCCCCCCCCCCCCCC(=O)Oc1cccc2c1C(=O)C=C(C)C2=O [2e, 5-O-octadecanoyloxy-2-methyl-1,4-naphthoquinone]
inhibition of pol α relative activity (in words) (Calf pol α): did not inhibit

Structure (SMILES): CC(=O)Oc1cccc2c1C(=O)C=C(C)C2=O [2a, 5-O-acetoxy-2-methyl-1,4-naphthoquinone]
melting point: 118 to 124 °C
inhibition of pol λ relative activity (in words) (Human pol λ): hardly inhibited
inhibition of pol κ relative activity (in words) (Human pol κ): hardly inhibited

Structure (SMILES): O=C1C=CC(=O)c2c(O)cccc21 [compound 4, 5-hydroxy-1,4-naphthoquinone]
decreased rates of tumor volume (HT-29 solid tumors): 9.2%

Structure (SMILES): CC[n+]1c(-c2ccccc2)c2cc(N)ccc2c2ccc(N)cc21 [EtBr, ethidium bromide]
thermal transition (Tm) of dsDNA from 75 to 90°C (calf thymus dsDNA): an obvious thermal transition was observed

Structure (SMILES): C[C@@]1(CO)[C@H](O)CC[C@@]2(C)[C@H]1CC[C@H]1C[C@@H]3C[C@@]12CC[C@]3(O)CO [aphidicolin]
IC50 (pol ε): 16 µM
IC50 (pol α): 20 µM
IC50 (pol δ): 13 µM

Structure (SMILES): CC1=CC(=O)c2c(O)cccc2C1=O [compound 1, 5-hydroxy-2-methyl-1,4-naphthoquinone, reference compound]
suppression of cell proliferation (HCT116 (colon cancer); 10 µM): did not
suppression of cell proliferation (HCT116 (colon cancer); 100 µM): approximately 50%

Structure (SMILES): CC1=CC(=O)c2ccccc2C1=O [compound 3, 2-methyl-1,4-naphthoquinone]
decreased rates of tumor volume (HT-29 solid tumors): 7.0%
